Results published in patent US20190255022A1, “WOUND-HEALING AGENT” (NIPPON CHEMIPHAR CO., LTD., priority 2016, published 2019).

Tested on: rat pressure ulcer model
Test: Effect of compound A in rat pressure ulcer model
Format: in vivo
Conditions: for Number of days required for healing: 150 mg once a day until healing; for Number of days required for healing / wound area ratio: mean±standard error; for wound area ratio: 150 mg once a day
Experimental: The compound A was weighed in the required amount, and polyethylene glycol 400 (PEG400) was added to the compound to prepare liquids having final concentrations of the compound of 0.01, 0.1, and 1.0 w/v %. In order to prepare ointments having final concentrations of the compound of 0.005, 0.05, and 0.5 w/w %, PEG4000 melted by warming at 65° C. was added to the liquids, and the liquids were stirred until they solidified at room temperature to prepare ointments having concentrations of the compound of 0.005, 0.05, and 0.5 w/w %.
Pentobarbital sodium was intraperitoneally administered (50 mg/kg) to 8 weeks old Slc:SD rats, of which skins on the right third trochanter had been broadly depilated beforehand using an electric clipper and an electric shaver, 20 mg/kg of allobarbital was further intraperitoneally administered to anesthetize the rats, and the animals were fixed on wooden fixation plates in the prone position. Absorbent cotton was inserted between the femoral region and the fixation plate as a cushion, and a stainless steel bar (diameter 19 mm, length 50 cm) having a weight of 1.02 to 1.03 kg and attached with a rubber stopper (diameter 12 mm) was placed on the skin over the right third trochanter to give a pressure load (902.3 to 911.2 g/cm^2) for 24 hours^5). After 24 hours, the pressure load was eliminated, a 5% glucose solution was orally administered to the rats, and two days after the elimination of the pressure load, the necrotic skin was surgically removed under isoflurane anesthesia to prepare a pressure ulcer model. As for the methods of the experiments, Hidetoshi Hamamoto et al., Clinical Pharmacology and Therapy (Yakuri to Rinsho), 15:255-262, 2005, Effect of MRX-201 on Wound Healing Dermal Burns and Decubitus Ulcer in Rat was referred to.
After the preparation of the pressure ulcer model, the administration was performed once a day at a dose of 150 mg until healing was completed. The wound surface was cleaned with absorbent cotton dipped in physiological saline before the administration, and the ointment was applied to the whole wound surface with a spatula.
Wound area was measured once a day after the start of the administration of the test substance until healing was completed. By using the measured wound area, wound area ratio (%) based on the wound area before the start of the administration was calculated. The number of days of the period from the start of the administration to healing was calculated as number of days required for healing.
Homoscedasticity was examined by the Bartlett's method. When homoscedastic results were obtained, one-way layout analysis of variance was further performed, and when significant results were obtained, mean values were compared by the Tukey's method. When heteroscedastic results were obtained, Kruskal-Wallis H-test was performed, and when significant results were obtained, mean ranks were compared by the Tukey's method. For the Bartlett's method, one-way analysis of variance, and Kruskal-Wallis H-test, the statistical significance level was set at 5%, and for the Tukey's method, the statistical significance level was set at 5% and 1%.

Cc1cc2c(CCc3sc(-c4ccc(C(F)(F)F)cc4)nc3C(C)C)noc2cc1OCC(=O)O [compound A, [3-[2-[4-isopropyl-2-(4-trifluoromethyl)phenyl-5-thiazolyl]ethyl]-5-methyl-1,2-benzisoxazol-6-yl]oxyacetic acid]
number of the days required for healing compared with the vehicle-administered group (0.005% and 0.05% compound A-administered groups): significantly decreased
Number of days required for healing (0.005% compound A ointment, n=10): 20.1 ± 1.4 days
wound area ratio (0.005% compound A ointment, day 1 of administration, n=10): 100.0 ± 0.0%
wound area ratio (0.005% compound A ointment, day 2 of administration, n=10): 108.3 ± 3.1%
wound area ratio (0.005% compound A ointment, day 3 of administration, n=10): 108.9 ± 3.9%
wound area ratio (0.005% compound A ointment, day 4 of administration, n=10): 99.9 ± 3.5 %
wound area ratio (0.005% compound A ointment, day 5 of administration, n=10): 92.1 ± 3.7 %
wound area ratio (0.005% compound A ointment, day 6 of administration, n=10): 76.4 ± 5.5 %
wound area ratio (0.005% compound A ointment, day 7 of administration, n=10): 66.4 ± 4.7 %
wound area ratio (0.005% compound A ointment, day 8 of administration, n=10): 55.2 ± 4.8 %
wound area ratio (0.005% compound A ointment, day 9 of administration, n=10): 45.3 ± 4.3 %
wound area ratio (0.005% compound A ointment, day 10 of administration, n=10): 39.4 ± 4.1 %
wound area ratio (0.005% compound A ointment, day 11 of administration, n=10): 31.5 ± 3.3 %
wound area ratio (0.005% compound A ointment, day 12 of administration, n=10): 23.8 ± 2.4 %
wound area ratio (0.005% compound A ointment, day 13 of administration, n=10): 19.6 ± 2.3 %
wound area ratio (0.005% compound A ointment, day 14 of administration, n=10): 14.4 ± 2.5 %
wound area ratio (0.005% compound A ointment, day 15 of administration, n=10): 10.3 ± 2.1%
wound area ratio (0.005% compound A ointment, day 16 of administration, n=10): 7.1 ± 1.8 %
wound area ratio (0.005% compound A ointment, day 17 of administration, rats except for the healed rats): 4.4 ± 1.5 %
wound area ratio (0.005% compound A ointment, day 18 of administration, rats except for the healed rats): 4.9 ± 1.6^ %
wound area ratio (0.005% compound A ointment, day 19 of administration, rats except for the healed rats): 3.3 ± 1.5 %
wound area ratio (0.005% compound A ointment, day 20 of administration, rats except for the healed rats): 2.8 ± 1.5^ %
wound areas compared with the vehicle-administered group (0.005% compound A-administered group, from the day 4 of the administration): significantly smaller
wound areas compared with the vehicle-administered group (0.05% and 0.5% compound A-administered groups, from the day 5 of the administration): significantly smaller
Number of days required for healing (0.05% compound A ointment, n=10): 19.7 ± 1.1 days
wound area ratio (0.05% compound A ointment, day 1 of administration, n=10): 100.0 ± 0.0%
wound area ratio (0.05% compound A ointment, day 2 of administration, n=10): 115.0 ± 2.8%
wound area ratio (0.05% compound A ointment, day 3 of administration, n=10): 113.6 ± 3.5%
wound area ratio (0.05% compound A ointment, day 4 of administration, n=10): 104.9 ± 3.1%
wound area ratio (0.05% compound A ointment, day 5 of administration, n=10): 95.1 ± 3.7 %
wound area ratio (0.05% compound A ointment, day 6 of administration, n=10): 84.4 ± 2.8%
wound area ratio (0.05% compound A ointment, day 7 of administration, n=10): 73.5 ± 2.7 %
wound area ratio (0.05% compound A ointment, day 8 of administration, n=10): 63.4 ± 3.1 %
wound area ratio (0.05% compound A ointment, day 9 of administration, n=10): 49.8 ± 4.2 %
wound area ratio (0.05% compound A ointment, day 10 of administration, n=10): 41.6 ± 3.9 %
wound area ratio (0.05% compound A ointment, day 11 of administration, n=10): 31.2 ± 3.1 %
wound area ratio (0.05% compound A ointment, day 12 of administration, n=10): 22.3 ± 3.6 %
wound area ratio (0.05% compound A ointment, day 13 of administration, n=10): 16.4 ± 4.0 %
wound area ratio (0.05% compound A ointment, day 14 of administration, n=10): 12.1 ± 3.7 %
wound area ratio (0.05% compound A ointment, day 15 of administration, n=10): 8.6 ± 3.2 %
wound area ratio (0.05% compound A ointment, day 16 of administration, n=10): 7.5 ± 3.3 %
wound area ratio (0.05% compound A ointment, day 17 of administration, rats except for the healed rats): 6.7 ± 3.2 %
wound area ratio (0.05% compound A ointment, day 18 of administration, rats except for the healed rats): 7.8 ± 3.8^ %
wound area ratio (0.05% compound A ointment, day 19 of administration, rats except for the healed rats): 5.4 ± 2.9^ %
wound area ratio (0.05% compound A ointment, day 20 of administration, rats except for the healed rats): 5.4 ± 3.2^ %
Number of days required for healing (0.5% compound A ointment, n=10): 21.0 ± 1.2 days
wound area ratio (0.5% compound A ointment, day 1 of administration, n=10): 100.0 ± 0.0%
wound area ratio (0.5% compound A ointment, day 2 of administration, n=10): 119.6 ± 5.0%
wound area ratio (0.5% compound A ointment, day 3 of administration, n=10): 117.5 ± 5.0%
wound area ratio (0.5% compound A ointment, day 4 of administration, n=10): 109.5 ± 4.6%
wound area ratio (0.5% compound A ointment, day 5 of administration, n=10): 93.2 ± 4.3 %
wound area ratio (0.5% compound A ointment, day 6 of administration, n=10): 84.9 ± 4.3%
wound area ratio (0.5% compound A ointment, day 7 of administration, n=10): 77.0 ± 5.1%
wound area ratio (0.5% compound A ointment, day 8 of administration, n=10): 65.3 ± 4.4%
wound area ratio (0.5% compound A ointment, day 9 of administration, n=10): 56.0 ± 4.0%
wound area ratio (0.5% compound A ointment, day 10 of administration, n=10): 49.2 ± 3.9%
wound area ratio (0.5% compound A ointment, day 11 of administration, n=10): 39.7 ± 4.6%
wound area ratio (0.5% compound A ointment, day 12 of administration, n=10): 28.3 ± 3.4%
wound area ratio (0.5% compound A ointment, day 13 of administration, n=10): 19.6 ± 2.2 %
wound area ratio (0.5% compound A ointment, day 14 of administration, n=10): 15.5 ± 1.6 %
wound area ratio (0.5% compound A ointment, day 15 of administration, n=10): 8.0 ± 0.9 %
wound area ratio (0.5% compound A ointment, day 16 of administration, n=10): 5.6 ± 0.7 %
wound area ratio (0.5% compound A ointment, day 17 of administration, rats except for the healed rats): 3.7 ± 0.5 %
wound area ratio (0.5% compound A ointment, day 18 of administration, rats except for the healed rats): 2.2 ± 0.6 %
wound area ratio (0.5% compound A ointment, day 19 of administration, rats except for the healed rats): 2.2 ± 0.6 %
wound area ratio (0.5% compound A ointment, day 20 of administration, rats except for the healed rats): 1.6 ± 0.4 %
exacerbation of wounds (from the day 1 to day 3 of the administration, a tendency): suppressed
